Measurements reported in ChEMBL document CHEMBL1128526, “Conformational effects on retinoid receptor selectivity. 2. Effects of retinoid bridging group on retinoid X receptor activity and selectivity” (J Med Chem, 1995).
“And” between values parts separate entries of the source, which are not always exact repeats. Equal values may be shown once.

How the values were obtained:
[1] = target: T1, Retinoic acid receptor RXR-gamma (Homo sapiens, UniProt P48443); experiment: Effective concentrations against Retinoic acid receptor RXR-gamma
T1 sequence (P48443 whole entry): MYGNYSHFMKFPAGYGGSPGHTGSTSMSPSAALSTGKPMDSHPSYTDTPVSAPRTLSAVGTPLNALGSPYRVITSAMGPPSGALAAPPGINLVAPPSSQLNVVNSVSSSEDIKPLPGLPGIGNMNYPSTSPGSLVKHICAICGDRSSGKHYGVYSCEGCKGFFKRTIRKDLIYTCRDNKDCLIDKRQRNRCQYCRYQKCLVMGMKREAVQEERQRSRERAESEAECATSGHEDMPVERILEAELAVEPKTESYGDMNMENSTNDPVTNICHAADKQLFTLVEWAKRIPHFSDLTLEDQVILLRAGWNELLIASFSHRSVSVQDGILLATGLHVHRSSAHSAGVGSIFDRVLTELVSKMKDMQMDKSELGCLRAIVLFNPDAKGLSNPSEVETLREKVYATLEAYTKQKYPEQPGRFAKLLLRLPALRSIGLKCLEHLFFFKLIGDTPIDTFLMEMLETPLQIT

[2] = target: T2, Retinoic acid receptor RXR-beta (Homo sapiens, UniProt P28702); experiment: Effective concentrations against Retinoid X receptor RXR beta
T2 sequence (P28702 whole entry): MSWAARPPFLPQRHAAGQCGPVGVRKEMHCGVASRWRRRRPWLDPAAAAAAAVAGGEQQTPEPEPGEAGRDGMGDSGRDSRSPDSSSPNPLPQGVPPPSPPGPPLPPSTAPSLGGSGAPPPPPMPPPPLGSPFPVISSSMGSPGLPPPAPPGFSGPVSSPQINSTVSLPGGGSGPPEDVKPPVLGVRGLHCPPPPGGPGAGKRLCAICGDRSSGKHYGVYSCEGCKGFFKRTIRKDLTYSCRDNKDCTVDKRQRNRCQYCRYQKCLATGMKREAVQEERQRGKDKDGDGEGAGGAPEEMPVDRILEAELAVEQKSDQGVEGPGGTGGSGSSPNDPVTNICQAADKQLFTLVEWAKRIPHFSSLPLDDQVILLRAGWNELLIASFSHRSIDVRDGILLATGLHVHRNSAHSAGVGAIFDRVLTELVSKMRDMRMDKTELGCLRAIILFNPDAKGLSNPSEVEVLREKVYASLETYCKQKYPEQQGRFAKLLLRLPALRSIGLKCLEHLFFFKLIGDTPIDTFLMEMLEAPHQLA

[3] = target: T3, Retinoic acid receptor RXR-alpha (Homo sapiens, UniProt P19793); experiment: Effective concentration against Retinoic acid receptor RXR-alpha
T3 sequence (P19793 whole entry): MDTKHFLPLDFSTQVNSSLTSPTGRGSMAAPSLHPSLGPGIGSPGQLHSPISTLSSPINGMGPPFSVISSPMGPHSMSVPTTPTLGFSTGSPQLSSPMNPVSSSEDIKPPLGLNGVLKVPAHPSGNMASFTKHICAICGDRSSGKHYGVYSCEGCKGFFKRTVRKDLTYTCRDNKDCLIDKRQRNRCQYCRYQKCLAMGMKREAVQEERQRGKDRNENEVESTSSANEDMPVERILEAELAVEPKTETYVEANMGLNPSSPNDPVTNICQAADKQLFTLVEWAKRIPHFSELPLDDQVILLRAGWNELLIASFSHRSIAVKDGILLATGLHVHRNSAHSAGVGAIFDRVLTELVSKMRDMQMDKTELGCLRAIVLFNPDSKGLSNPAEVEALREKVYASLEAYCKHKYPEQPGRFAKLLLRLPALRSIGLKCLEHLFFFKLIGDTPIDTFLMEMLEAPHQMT

[4] = target: T2, Retinoic acid receptor RXR-beta; experiment: Effective concentrations against Retinoic acid receptor RXR-beta

Compound | EC50 [1] | EC50 [2] | EC50 [3] | EC50 [4]
CC(/C=C/C1(c2cc3c(cc2C)C(C)(C)CCC3(C)C)OCCO1)=C\C(=O)O | 2300 nM | 47 nM | 21 nM | –
C=C(c1ccc(C(=O)O)s1)c1cc2c(cc1C)C(C)(C)CCC2(C)C | 520 nM | – | 330 nM | 33 nM
CC1(C)CCC(C)(C)c2cc(C3(c4ccc(C(=O)O)cc4)OCCO3)ccc21 | – | – | 34 nM | –
CC1(C)CCC(C)(C)c2cc(C3(c4ccc(C(=O)O)cc4)SCCCS3)ccc21 | – | – | 630 nM and 540 nM | –
CC1(C)CCC(C)(C)c2cc(C3(c4ccc(C(=O)O)cc4)OCCCO3)ccc21 | – | – | 750 nM and 1200 nM | –
CC1(C)CCC(C)(C)c2cc(C3(c4ccc(C(=O)O)cc4)OCCS3)ccc21 (configuration not stated) | – | – | 74 nM | –
CC1(C)CCC(C)(C)c2cc(C(C)(C)c3ccc(C(=O)O)cc3)ccc21 | – | – | 3100 nM | –
CC1(C)CCC(C)(C)c2cc(Cc3ccc(C(=O)O)cc3)ccc21 | 2000 nM | – | 2500 nM | 2700 nM
Cc1cc2c(cc1C(=O)c1ccc(C(=O)O)s1)C(C)(C)CCC2(C)C | 300 nM | – | 2200 nM | 1000 nM
C/C=C(/c1ccc(C(=O)O)cc1)c1ccc2c(c1)C(C)(C)CCC2(C)C | 370 nM | – | 55 nM and 470 nM | 160 nM
CC(C)=C(/C=C/C(C)=C/C(=O)O)c1cc2c(cc1C)C(C)(C)CCC2(C)C | – | – | 200 nM | –
CC1(C)CCC(C)(C)c2cc(C(O)c3ccc(C(=O)O)cc3)ccc21 (configuration not stated) | – | – | 2900 nM | –
CC(c1ccc(C(=O)O)cc1)c1ccc2c(c1)C(C)(C)CCC2(C)C (configuration not stated) | – | – | 300 nM | –
CC1(C)CCC(C)(C)c2cc(Oc3ccc(C(=O)O)cc3)ccc21 | 530 nM | – | 2500 nM | 1900 nM
CC(C)=C(c1ccc(C(=O)O)cc1)c1ccc2c(c1)C(C)(C)CCC2(C)C | – | – | 86 nM | –
CC1(C)CCC(C)(C)c2cc(C3(c4ccc(C(=O)O)cc4)SCCS3)ccc21 | – | – | 170 nM | –
C/C=C(\c1ccc(C(=O)O)cc1)c1ccc2c(c1)C(C)(C)CCC2(C)C | – | – | 2500 nM | –
CC1(C)CCC(C)(C)c2cc(C3(c4ccc(C(=O)O)cc4)CC3)ccc21 | – | – | 55 nM | –
CC(C)=C(/C=C/C(C)=C/C(=O)O)c1ccc2c(c1)C(C)(C)CCC2(C)C | – | – | 380 nM | –
C=C(c1ccc(C(=O)O)cc1)c1ccc2c(c1)C(C)(C)CCC2(C)C | – | – | 270 nM | –
